Assay results: patent US9271995B2, “Agent for ameliorating brain hypofunction” (The University of Tokyo, priority 2008, dated 2016)

Columns and labels:
Format in all cases: in vivo
[1] = system: old mice (male C57BL6/Njcl); experiment: Open field test; conditions: ManNAc 5 mg/ml in tap water ad libitum
Method: (§1) • 1) Object and place recognition task experiments were performed on male C57BL6/Njcl mice in three groups. Outline of the experiments is shown in FIG. 1. • Old control group: Old mice (reared from 47 to 66 weeks of age, n=10) were allowed to drink tap water ad libitum. • Old ManNAc recipient group: Old mice (reared from 47 to 66 weeks of age, n=10) were allowed to drink tap water with ManNAc (5 mg/ml) dissolved therein ad libitum. • Young control group: Young mice (reared from 8 to 18 weeks of age, n=10) were allowed to drink tap water ad libitum. • 2) Experimental procedures: An open field test was performed to examine the tendency toward anxiety and locomotor activity, and this was followed by place recognition task and object recognition task in accordance with conventional methods (see FIG. 2). • 3) Experimental results (FIGS. 3 and 4)
Open field test (FIG. 3): Moving distance in an unfamiliar planar space was compared between the old mice and the young mice.

[2] = system: old mice (male C57BL6/Njcl); experiment: Place recognition task; conditions: ManNAc 5 mg/ml in tap water ad libitum, paired t-test, p<0.05
Method: as §1
(§2) When ManNAc was administered to the old mice (FIG. 4C), the exploratory behavior times for the new place (paired t-test, p<0.05) and the new object (paired t-test, p<0.001) normalized in all tasks; a capability of recognition memory equivalent to that of the young mice was shown.

[3] = system: old mice (male C57BL6/Njcl); experiment: Object recognition task; conditions: ManNAc 5 mg/ml in tap water ad libitum, paired t-test, p<0.001
Method: as §1, §2

middle-aged mice [4] = experiment: Sleep analysis by electroencephalograms and electromyograms (aging-related sleep disorders)
Text: (§3) Mice are awake during active time in the dark phase and conversely cease their activities and have a sleep in the light phase. It is known that in aged mice, the wake-sleep rhythm is deranged to the extent of lighter sleep in the light phase and decreased activities during wake time in the dark phase. It is also known that the aging-related derangement of wake and sleep is related to hypothalamic activity and accompanied by elevated body temperatures and increased heart rates. Because these symptoms are similar to those in human patients in their middle age to senescence who complain of dissatisfaction with sleep, they serve as an appropriate model for examining the influences on sleep.
(§4) Middle-aged mice [three reared from 43 to 66 weeks of age under light-dark cycle conditions (12-hour light phase-12-hour dark phase)] were allowed to drink ManNAc solution (5 mg/ml tap water) ad libitum. During 1 week before and after the free access to the solution, […], body temperature, and locomotor activity were monitored over time using a telemeter. Also analyzed were electroencephalograms recorded during wake and sleep times in both the ManNAc non-ingestion period and the free-access period. To measure electroencephalograms and electromyograms, a mouse electroencephalogram transmitter (F20EET, Data Sciences) was implanted in each animal under anesthesia (pentobarbital, 30 mg/kg, i.v.), and electroencephalograms, electromyograms, body temperature, and locomotor activity were continuously recorded using ART (Data Sciences Company). The electroencephalograms thus obtained were analyzed using NeuroScore (Data Sciences Company), and the sleep events were classified into REM sleep and slow wave sleep. The lengths of each sleep stage were totaled and compared among the mice before and after administration and young mice.

middle-aged mice [5] = experiment: Telemeter monitoring of heart rate, body temperature and locomotor activity; conditions: administration of ManNAc
Text: as §3, §4

[6] = middle-aged mice receiving ManNAc, began to be observed on day 2 after administration

SMILES: CC(=O)N[C@@H]1C(O)O[C@H](CO)[C@@H](O)[C@@H]1O (stereo partly drawn) [ManNAc, N-acetyl-D-mannosamine]
- total motor activity [1]: without influencing total motor activity
- rise in the tendency toward anxiety (time of stay in the central portion) ([1]; vs old control): tended to decrease slightly, but the difference was statistically insignificant
- exploratory behavior time for the new place [2]: normalized
- exploratory behavior time for the new object [3]: normalized
- day after the start of administration on which the effect on sleep begins to be evident (middle-aged mice [4]; extension of REM sleep time, sleep-wake rhythm): 2 days
- REM sleep (middle-aged mice [4]; [6]): increased
- slow wave sleep (middle-aged mice [4]; [6]): decreased
- wake time (middle-aged mice [4]; [6]): remarkably increased
- Wake, daily percentage (middle-aged mice [4]; middle-aged mice, 4 days after administration, ManNAc 5 mg/ml tap water ad libitum (before administration 1.8)): 2.2%
- REM sleep, daily percentage (middle-aged mice [4]; middle-aged mice, 4 days after administration, ManNAc 5 mg/ml tap water ad libitum (before administration 5.4)): 10.0%
- Wake (major), daily percentage (middle-aged mice [4]; middle-aged mice, 4 days after administration, ManNAc 5 mg/ml tap water ad libitum (before administration 12.7)): 15.3%
- Slow wave sleep, daily percentage (middle-aged mice [4]; middle-aged mice, 4 days after administration, ManNAc 5 mg/ml tap water ad libitum (before administration 80.0)): 72.5%
- change in heart rate due to behavioral change (difference between the light and dark phases) (middle-aged mice [5]): became evident
- difference in locomotor activity between the light and dark phases (middle-aged mice [5]): increased
- body temperature (middle-aged mice [5]; non-active period): declined
